# Read-outs that look alike come from different tables or passages of the source.
# Experiments:
# [1] = test system: lactate; experiment: Lactate in mouse blood, CT26 cachexia model; format: in vivo, Balb/c mice; details: CT26 Balb/c cachexia model, 21 days; G4 PO 200 mpk, G5 IV 100 mpk, G6 IV 200 mpk; vs vehicle control G2
# Procedure: (§1) The mice were sacrificed, and IL-1β and lactate were analyzed using the blood serum collected at autopsy, and the results are summarized in FIGS. 48A and 48B.
# (§2) In FIG. 48, each group represents the following.
# [2] = test system: MyHC; experiment: MyHC expression (Western blot) in CCM-treated C2C12 myotubes; format: cell-based, mouse; details: 72 hours, compared to other experimental groups (components alone and in combination)
# Procedure: (§3) A C2C12 cell line was dispensed into a 6-well plate at 4.0×10^5 cells/well, and then cultured in DMEM medium containing 10% fetal bovine serum (FBS) under 37° C. and 5% CO2 conditions for one day. When the cell density reached about 80%, the medium was replaced with a differentiation medium and the cells were cultured for additional 3 days. After confirming completion of differentiation of the cells, the cells were treated with a mixture, in which the differentiation medium and cancer-cell conditioned medium (CCM) were mixed at a 1:1 ratio, to form a control group, and simultaneously, a test group was set up by treating with the calcium salts of Preparation Examples 1 to 3 according to three predetermined concentrations.
# (§4) A C2C12 cell line was dispensed into a 6-well plate at 4.0×10^5 cells/well, and then cultured in DMEM medium containing 10% fetal bovine serum (FBS) under 37° C. and 5% CO2 conditions for one day. When the cell density reached about 80%, the medium was replaced with a differentiation medium and the cells were cultured for additional 3 days.
# [3] = Rotarod-treadmill test; format: in vivo, Balb/c mice; details: CT26 Balb/c cachexia model; G6 IV 200 mpk
# Procedure: After the animal was carefully placed on a Rotarod-treadmill (JD-A-07RA5, B.S Technolab Inc., Korea), and the measurement was made for 300 seconds while increasing the rotation speed from 4 rpm to 40 rpm at regular intervals and, and the results are summarized in FIG. 53A.
# [4] = test system: Atrogin1; experiment: Atrogin1 expression (Western blot) in CCM-treated C2C12 myotubes; format: cell-based, mouse; details: 72 hours, compared to other experimental groups (components alone and in combination)
# Procedure: as §3, §4
# [5] = test system: skeletal muscle (gastrocnemius, quadriceps, and soleus); details: CT26 Balb/c cachexia model, 21 days
# Procedure: A CT26 mouse colorectal cancer cell line was subcutaneously transplanted into Balb/c mice to construct a syngeneic model, and the calcium salt (Asc-Ca-DCA) of Preparation
# Example 1 was administered to the mice for a total of 21 days. The mice were sacrificed, and three types of skeletal muscle (gastrocnemius, quadriceps, and soleus) were extracted at autopsy, and histopathological analysis was performed. Cross-sectional images of muscle tissue were obtained, and the muscle fiber cross-sectional area (CSA) was measured, and the results are summarized in FIGS. 50 to 52.
# In FIGS. 50 to 52, each group represents the following. […] Scale bars inserted in A to F of FIGS. 50 to 52 represent a horizontal length of 100 μm.
# [6] = test system: PDK-4; experiment: PDK-4 expression (Western blot) in CCM-treated C2C12 myotubes; format: cell-based, mouse
# Procedure: as §4, with “C2C12” for “A C2C12”, “cells/well” for “cells/well,”, “and” for “and then”, “days. […] After culturing for 72 hours, the cells were collected and analyzed for PDK-4, which is a target marker, by Western blot and the results are summarized in FIG. 6.” for “days.”
# as §4
# Subsequently, MuRF1, Atrogin1, MyHC, Myogenin (muscle markers) and Calpain 3, PDK-4, and GDF-15 (other target markers for muscle related disease) were analyzed using Western blot, and the relative expression levels for the markers are shown in FIGS. 26 and 28.
# [7] = test system: MyHC; experiment: MyHC expression in mouse muscle tissue, CT26 cachexia model; format: in vivo, Balb/c mice; details: CT26 Balb/c cachexia model, 21 days; G4 PO 200 mpk, G5 IV 100 mpk, G6 IV 200 mpk; vs vehicle control G2
# Source text: (§5) The mice were sacrificed, and the skeletal muscle in the quadriceps was extracted during autopsy, and tissue was homogenized, and proteins were extracted through RIPA lysis buffer, followed by Western blot analysis.
# [8] = test system: Atrogin1; experiment: Atrogin1 expression in mouse muscle tissue, CT26 cachexia model; format: in vivo, Balb/c mice; details: CT26 Balb/c cachexia model, 21 days
# Source text: as §5
# [9] = Wire hanging test; format: in vivo, Balb/c mice; details: CT26 Balb/c cachexia model; G4 to G6; compared to G3 megestrol (positive control)
# Procedure: Along with the above, a wire hanging test was performed once a week, and the animal was placed on top of a wire cage, and then turned the cage upside down and hung over the home cage, and the waiting time until the animal fell was recorded and summarized in FIG. 53B.
# [10] = test system: IL-1β; experiment: IL-1β in mouse blood, CT26 cachexia model; format: in vivo, Balb/c mice; details: CT26 Balb/c cachexia model, 21 days; G4 PO 200 mpk, G5 IV 100 mpk, G6 IV 200 mpk; vs vehicle control G2
# Procedure: as §1, §2
# [11] = Drug concentration in blood and pharmacokinetics factors after IV and PO administration; format: in vivo; details: SD rats
# Procedure: After the administration of each individual rat, blood was collected according to the elapsed time (0 to 48 hours), centrifuged, and the concentration of the administered drug in the blood and the pharmacokinetic factors (PK parameter) of the obtained plasma were analyzed through LC/MS/MS analysis, and the results are summarized in Table 1 below.
# [12] = test system: MuRF1; experiment: MuRF1 expression (Western blot) in CCM-treated C2C12 myotubes; format: cell-based, mouse; details: 72 hours, compared to other experimental groups (components alone and in combination)
# Procedure: as §3, §4
# [13] = Inhibition of weight loss in cancer cachexia animal model; format: in vivo, Balb/c mice; details: CT26 Balb/c cachexia model, G6 IV 200 mpk, p<0.05
# Source text: In FIG. 49, each group represents the following.
# [14] = G4 PO 200 mpk, G5 IV 100 mpk, G6 IV 200 mpk, vs vehicle control G2
# [15] = PO 2,000 mg/kg (1,000 mg/kg, BID), 1 day
# [16] = PO 2,000 mg/kg (1,000 mg/kg, BID), 6 days
structure (smiles),measurement,setting,value
"O=C([O-])C(Cl)Cl.O=C1OC(C(O)CO)C([O-])=C1O.[Ca+2] (stereo not drawn) [Preparation Example 1, calcium salts of ascorbic acid and dichloroacetic acid]",lactate in blood serum,[1],decrease in the expression levels
same,expression of MyHC,[2],excellent effect of inhibiting the decrease of expression
same,Rotarod-treadmill test improvement compared to G2,[3],about 24%
same,expression of Atrogin1,[4],excellent effect of inhibiting the increase of expression
same,"cross-sectional area of muscle tissue (gastrocnemius, quadriceps, soleus)",[5]; [14],increased the cross-sectional area
same,"cross-sectional area of muscle tissue (gastrocnemius, quadriceps, soleus)","[5]; G4 to G6, compared to G3 megestrol 125 mpk",level similar
same,expression of PDK-4,"[6]; C2C12 myotubes + CCM, 72 hours, comparison experiment with components alone and in combination",inhibited
same,expression level of PDK-4,"[6]; C2C12 myotubes, differentiation medium:CCM 1:1, 72 hours, three predetermined concentrations, vs CCM control",expression was inhibited
same,expression level of MyHC in quadriceps,[7],increase in the expression levels
same,expression level of Atrogin1 in quadriceps,[8]; [14],decrease in the expression levels
same,expression level of Atrogin1 in quadriceps,"[8]; G4 to G6, compared to G3 megestrol 125 mpk oral",excellent effects decreasing the expression levels
same,wire hanging test,[9],level similar
same,IL-1β in blood serum,[10],decrease in the expression levels
same,AUClast,"[11]; IV 200 mg/kg, 1 day",19770 ng·h/mL
same,Cmax,"[11]; IV 200 mg/kg, 1 day",30240 ng/mL
same,Tmax,"[11]; IV 200 mg/kg, 1 day",0.25 h
same,t1/2,"[11]; IV 200 mg/kg, 1 day",0.27 h
same,AUClast,"[11]; IV 200 mg/kg, 6 days",7980 ng·h/mL
same,Cmax,"[11]; IV 200 mg/kg, 6 days",2700 ng/mL
same,Tmax,"[11]; IV 200 mg/kg, 6 days",0.00 h
same,t1/2,"[11]; IV 200 mg/kg, 6 days",2.72 h
same,AUClast,"[11]; PO 200 mg/kg, 1 day",38780 ng·h/mL
same,Cmax,"[11]; PO 200 mg/kg, 1 day",23910 ng/mL
same,Tmax,"[11]; PO 200 mg/kg, 1 day",0.50 h
same,t1/2,"[11]; PO 200 mg/kg, 1 day",0.59 h
same,AUClast,"[11]; PO 200 mg/kg, 6 days",34620 ng·h/mL
same,Cmax,"[11]; PO 200 mg/kg, 6 days",6260 ng/mL
same,Tmax,"[11]; PO 200 mg/kg, 6 days",0.00 h
same,t1/2,"[11]; PO 200 mg/kg, 6 days",2.72 h
same,AUClast,"[11]; PO 500 mg/kg, 1 day",353650 ng·h/mL
same,Cmax,"[11]; PO 500 mg/kg, 1 day",66440 ng/mL
same,Tmax,"[11]; PO 500 mg/kg, 1 day",1.50 h
same,t1/2,"[11]; PO 500 mg/kg, 1 day",4.14 h
same,AUClast,"[11]; PO 500 mg/kg, 6 days",147850 ng·h/mL
same,Cmax,"[11]; PO 500 mg/kg, 6 days",21280 ng/mL
same,Tmax,"[11]; PO 500 mg/kg, 6 days",0.00 h
same,t1/2,"[11]; PO 500 mg/kg, 6 days",5.58 h
same,AUClast,[11]; [15],889770 ng·h/mL
same,Cmax,[11]; [15],130920 ng/mL
same,Tmax,[11]; [15],1.75 h
same,t1/2,[11]; [15],5.64 h
same,AUClast,[11]; [16],575250 ng·h/mL
same,Cmax,[11]; [16],77200 ng/mL
same,Tmax,[11]; [16],0.00 h
same,t1/2,[11]; [16],3.11 h
same,expression of MuRF1,[12],excellent effect of inhibiting the increase of expression
same,weight increase compared to G2,[13]; 17th day,about 6%
same,weight increase compared to G2,[13]; 20th day,~13%
